Common to all, as to assay type: cell membranes, Membrane
Test [1] can be described thus: Displacement of [3H]KAIN from kainate receptor in rat cortical membranes.
Test [2] in a line: Displacement of [3H]AMPA from AMPA receptor in rat cortical membranes. Background: Loss of bound radioactivity is the signal in a displacement assay; it reports binding, not function.
The next test addresses Glutamate NMDA receptor. As to the kind of experiment: Displacement of [3H]CGP39653 from NMDA receptor in rat cortical membranes.

The results in this text go back to ChEMBL document CHEMBL2424542, “3-Carboxy-pyrazolinalanine as a new scaffold for developing potent and selective NMDA receptor antagonists” (Eur J Med Chem, 2013).

The term IC50 denotes the concentration needed to halve the response being measured. On to `N[C@H](C[C@H]1CC(C(=O)O)=NO1)C(=O)O` (racemic), for which the half-inhibitory concentration (IC50) in test [1] and in test [2] was greater than 100 µM each time.
Usually Ki stands for the dissociation constant of the complex between target and ligand, obtained from inhibition or displacement. In the case of `N[C@H](C[C@H]1CC(C(=O)O)=NN1c1ccccc1)C(=O)O` (racemic), the affinity on Glutamate NMDA receptor, expressed as Ki, was 0.026 µM. In addition, the IC50 in test [1] and in test [2] was greater than 100 µM throughout.
Turning to `N[C@H](C[C@@H]1CC(C(=O)O)=NN1c1ccccc1)C(=O)O` (racemic), affinity at Glutamate NMDA receptor was put at a Ki of 0.2 µM. In addition, the IC50 in test [1] and in test [2] was greater than 100 µM throughout.
`N[C@H](C[C@H]1CC(C(=O)O)=NN1)C(=O)O` (racemic): the Ki on Glutamate NMDA receptor turned out to be 0.17 µM. For the same compound, the concentration for half-maximal inhibition (IC50) in test [1] and in test [2] was greater than 100 µM throughout.
`N[C@H](C[C@@H]1CC(C(=O)O)=NN1)C(=O)O` (racemic) showed a Ki on Glutamate NMDA receptor of 1.7 µM. The concentration for half-maximal inhibition (IC50) in test [1] and in test [2] was greater than 100 µM in each case.
On Glutamate NMDA receptor, `N[C@H](C[C@H]1CC(C(=O)O)=NN1Cc1ccccc1)C(=O)O` (racemic) had a Ki of 1.4 µM. Moreover, the IC50 in test [1] and in test [2] was greater than 100 µM each time.
In turn, `N[C@H](C[C@@H]1CC(C(=O)O)=NN1Cc1ccccc1)C(=O)O` (racemic) came in with a Ki at Glutamate NMDA receptor of 9.9 µM. The IC50 in test [1] and in test [2] was greater than 100 µM throughout.
On to `N[C@H](C[C@@H]1CC(C(=O)O)=NO1)C(=O)O` (racemic), for which the IC50 in test [1] and in test [2] was greater than 100 µM throughout.
